Assay results: patent US9856242B2, “5-fluoro-N-(pyridin-2-yl)pyridin-2-amine derivatives containing a sulfone group” (Bayer Pharma Aktiengesellschaft, priority 2014, dated 2018)

Columns and labels:
CDK9/CycT1 = biological target: T1, CDK9/CycT1 (Homo sapiens, UniProt P50750); assay: CDK9/CycT1 kinase assay (Method 1a, TR-FRET, 10 μM ATP); type: biochemical; conditions: for IC50: Method 1a, 10 μM ATP; for Selectivity CDK9/CDK2: according to Methods 1a and 2a (ratio of CDK2 IC50 to CDK9 IC50)
T1 construct: Recombinant full-length His-tagged human CDK9 and CycT1; His; purchased Invitrogen PV4131; host or cells: insect cells
From the text: 1a. CDK9/CycT1 Kinase Assay:
CDK9/CycT1-inhibitory activity of compounds of the present invention was quantified employing the CDK9/CycT1 TR-FRET assay as described in the following paragraphs:
Recombinant full-length His-tagged human CDK9 and CycT1, expressed in insect cells and purified by Ni-NTA affinity chromatography, were purchased from Invitrogen (Cat. No PV4131). As substrate for the kinase reaction biotinylated peptide biotin-Ttds-YISPLKSPYKISEG (C-terminus in amid form) was used which can be purchased e.g. form the company JERINI Peptide Technologies (Berlin, Germany). For the assay 50 n1 of a 100 fold concentrated solution of the test compound in DMSO was pipetted into a black low volume 384 well microtiter plate (Greiner Bio-One, Frickenhausen, Germany), 2 μl of a solution of CDK9/CycT1 in aqueous assay buffer [50 mM Tris/HCl pH 8.0, 10 mM MgCl2, 1.0 mM dithiothreitol, 0.1 mM sodium ortho-vanadate, 0.01% (v/v) Nonidet-P40 (Sigma)] were added and the mixture was incubated for 15 min at 22° C. to allow pre-binding of the test compounds to the enzyme before the start of the kinase reaction. Then the kinase reaction was started by the addition of 3 μl of a solution of adenosine-tri-phosphate (ATP, 16.7 μM=>final conc. in the 5 μl assay volume is 10 μM) and substrate (1.67 μM=>final conc. in the 5 μl assay volume is 1 μM) in assay buffer and the resulting mixture was incubated for a reaction time of 25 min at 22° C. The concentration of CDK9/CycT1 was adjusted depending of the activity of the enzyme lot and was chosen appropriate to have the assay in the linear range, typical concentrations were in the range of 1 μg/mL. The reaction was stopped by the addition of 5 μl of a solution of TR-FRET detection reagents (0.2 μM streptavidine-XL665 [Cisbio Bioassays, Codolet, France] and 1 nM anti-RB(pSer807/pSer811)-antibody from BD Pharmingen [#558389] and 1.2 nM LANCE EU-W1024 labeled anti-mouse IgG antibody [Perkin-Elmer, product no. AD0077]) in an aqueous EDTA-solution (100 mM EDTA, 0.2% (w/v) bovine serum albumin in 100 mM HEPES/NaOH pH 7.0).
The resulting mixture was incubated 1 h at 22° C. to allow the formation of complex between the phosphorylated biotinylated peptide and the detection reagents. Subsequently the amount of phosphorylated substrate was evaluated by measurement of the resonance energy transfer from the Eu-chelate to the streptavidine-XL. Therefore, the fluorescence emissions at 620 nm and 665 nm after excitation at 350 nm was measured in a HTRF reader, e.g. a Rubystar (BMG Labtechnologies, Offenburg, Germany) or a Viewlux (Perkin-Elmer). The ratio of the emissions at 665 nm and at […] was taken as the measure for the amount of phosphorylated substrate. The data were normalised (enzyme reaction without inhibitor=0% inhibition, all other assay components but no enzyme=100% inhibition).

Caco-2 cells = assay: Proliferation assay (Method 3), Caco-2; type: cell-based; conditions: Caco-2, 96 h; human colorectal carcinoma, 4 days, crystal violet; read-out: Inhibition of Caco-2 cell proliferation IC50
Protocol: Cultivated tumour cells (HeLa, human cervical tumour cells, ATCC CCL-2; NCI-H460, human non-small cell lung carcinoma cells, ATCC HTB-177; A2780, human ovarian carcinoma cells, ECACC #93112519; DU 145, hormone-independent human prostate carcinoma cells, ATCC HTB-81; HeLa-MaTu-ADR, multidrug-resistant human cervical carcinoma cells, EPO-GmbH Berlin; Caco-2, human colorectal carcinoma cells, ATCC HTB-37; B16F10, mouse melanoma cells, ATCC CRL-6475) were plated at a density of 5,000 cells/well (DU145, HeLa-MaTu-ADR), 3,000 cells/well (NCI-H460, HeLa), 2,500 cells/well (A2780), 1,500 cells/well (Caco-2), or 1,000 cells/well (B16F10) in a 96-well multititer plate in 200 μL of their respective growth medium supplemented 10% fetal calf serum. After 24 hours, the cells of one plate (zero-point plate) were stained with crystal violet (see below), while the medium of the other plates was replaced by fresh culture medium (200 μl), to which the test substances were added in various concentrations (0 μM, as well as in the range of 0.001-10 μM; the final concentration of the solvent dimethyl sulfoxide was 0.5%). The cells were incubated for 4 days in the presence of test substances. Cell proliferation was determined by staining the cells with crystal violet: the cells were fixed by adding 20 μl/measuring point of an 11% glutaric aldehyde solution for 15 minutes at room temperature. After three washing cycles of the fixed cells with water, the plates were dried at room temperature. The cells were stained by adding 100 μl/measuring point of a 0.1% crystal violet solution (pH 3.0). After three washing cycles of the stained cells with water, the plates were dried at room temperature. The dye was dissolved by adding 100 μl/measuring point of a 10% acetic acid solution. The extinction was determined by photometry at a wavelength of 595 nm. The change of cell number, in percent, was calculated by normalization of the measured values to the extinction values of the zero-point plate (=0%) and the extinction of the untreated (0 μm) cells (=100%). The IC50 values (inhibitory concentration at 50% of maximal effect) were determined by means of a 4 parameter fit.

T1 sequence (P50750 whole entry): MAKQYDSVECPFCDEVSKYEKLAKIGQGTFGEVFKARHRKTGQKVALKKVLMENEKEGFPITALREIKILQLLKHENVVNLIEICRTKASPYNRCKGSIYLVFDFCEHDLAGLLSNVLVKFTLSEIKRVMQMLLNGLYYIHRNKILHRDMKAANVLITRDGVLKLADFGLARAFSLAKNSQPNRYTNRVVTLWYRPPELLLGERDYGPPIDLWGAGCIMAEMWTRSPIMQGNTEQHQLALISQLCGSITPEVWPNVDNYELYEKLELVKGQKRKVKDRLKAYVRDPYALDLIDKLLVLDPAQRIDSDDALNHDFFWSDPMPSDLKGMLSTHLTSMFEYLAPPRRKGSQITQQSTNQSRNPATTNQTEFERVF
T1 sequence (O60563 whole entry partner): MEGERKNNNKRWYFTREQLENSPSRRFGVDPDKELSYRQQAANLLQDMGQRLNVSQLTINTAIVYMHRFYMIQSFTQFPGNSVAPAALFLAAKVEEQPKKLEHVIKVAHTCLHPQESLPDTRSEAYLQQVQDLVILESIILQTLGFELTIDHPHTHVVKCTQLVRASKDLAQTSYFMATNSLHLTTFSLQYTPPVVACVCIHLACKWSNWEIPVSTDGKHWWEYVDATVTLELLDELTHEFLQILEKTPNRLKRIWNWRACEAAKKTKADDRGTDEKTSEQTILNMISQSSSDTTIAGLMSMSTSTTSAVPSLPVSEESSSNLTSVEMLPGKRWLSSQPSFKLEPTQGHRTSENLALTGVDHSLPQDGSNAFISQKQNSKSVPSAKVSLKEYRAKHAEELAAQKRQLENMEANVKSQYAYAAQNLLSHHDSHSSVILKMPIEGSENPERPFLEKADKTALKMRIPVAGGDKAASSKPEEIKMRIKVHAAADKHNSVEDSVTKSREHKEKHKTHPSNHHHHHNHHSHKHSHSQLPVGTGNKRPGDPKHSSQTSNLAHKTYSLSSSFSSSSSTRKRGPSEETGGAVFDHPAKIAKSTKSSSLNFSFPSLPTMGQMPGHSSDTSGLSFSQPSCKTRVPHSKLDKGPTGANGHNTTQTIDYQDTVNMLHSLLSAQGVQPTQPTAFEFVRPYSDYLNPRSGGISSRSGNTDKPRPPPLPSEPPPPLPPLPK

IC50 (CDK9/CycT1)	Selectivity CDK9/CDK2 (CDK9/CycT1)	IC50 (Caco-2 cells)	Structure (SMILES)
0.004 µM	18	0.037 µM	CS(=O)(=O)Cc1cc(F)nc(Nc2cc(-c3ccc(F)c4ccoc34)c(F)cn2)c1 [Example 2, 5-Fluoro-4-(4-fluoro-1-benzofuran-7-yl)-N-{6-fluoro-4-[(methylsulfonyl)methyl]pyridin-2-yl}pyridin-2-amine]
		0.012 µM	Cc1cc(CS(C)(=O)=O)cc(Nc2cc(-c3ccc(F)c4ccoc34)c(F)cn2)n1 [Example 3, 5-Fluoro-4-(4-fluoro-1-benzofuran-7-yl)-N-{6-methyl-4-[(methylsulfonyl)methyl]pyridin-2-yl}pyridin-2-amine]
0.003 µM	29	0.04 µM	CS(=O)(=O)Cc1ccnc(Nc2cc(-c3ccc(F)c4ccoc34)c(F)cn2)c1 [Example 1, 5-Fluoro-4-(4-fluoro-1-benzofuran-7-yl)-N-{4-[(methylsulfonyl)methyl]pyridin-2-yl}pyridin-2-amine]
		0.014 µM	CS(=O)(=O)Cc1cc(Nc2cc(-c3ccc(F)c4ccoc34)c(F)cn2)nc(C(F)(F)F)c1 [Example 4, 5-Fluoro-4-(4-fluoro-1-benzofuran-7-yl)-N-{4-[(methylsulfonyl)methyl]-6-(trifluoromethyl)pyridin-2-yl}pyridin-2-amine]
0.004 µM	17	0.061 µM	CS(=O)(=O)Cc1ccnc(Nc2cc(-c3cccc4ccoc34)c(F)cn2)c1 [Example 5, 4-(1-Benzofuran-7-yl)-5-fluoro-N-{4-[(methylsulfonyl)methyl]pyridin-2-yl}pyridin-2-amine]
